The subject of data set [1] is type II collagen-induced arthritis. As to conditions: for Inhibition ratio (%): arthritis score 35 days after primary sensitization. The method, then: 8-week-old DBA/1J male mice (7 to 10 mice) were used. 0.1 ml of an emulsion prepared by mixing a 0.1 M solution of acetic acid in physiological saline (2 mg/ml) of type II collagen derived from bovine joint cartilage and complete Freund's adjuvant at a mixing ratio of 1:1 was injected intradermally at the base of the tail in mice (primary sensitization). 21 days later, 0.1 ml of the emulsion prepared in the same manner as in case of primary sensitization was injected subcutaneously again at the back in mice (secondary sensitization). The test compound was suspended in an aqueous 0.5% methyl cellulose solution and administered orally to the mice once a day, which started from the primary or secondary sensitization. After 35 days from the primary sensitization, symptoms of arthritis was visually observed and the results were used a score of arthritis.

The next data set relates to CDF1 male mice. Conditions: single oral administration. The method, then:
7-week-old CDF1 male mice (6 mice) were used. The compound 1 was suspended in 0.5% methylcellulose and the resulting suspension was orally administered once by oral probe. The mortality rate was investigated after 2 weeks and the LD50 value was calculated by the probit method.

This is an account of results in US6967211B2, “Remedial agent for chronic articular rheumatism” (Nippon Shinyaku Co. Ltd., priority 2002, dated 2005).

Where two headings read alike, the source gives them in different places. Marks after values point to notes of the source that are not given here.

Take `COc1ccc(S(=O)(=O)N(C(C)=O)c2ccccc2/C=C/c2cc[n+]([O-])cc2)cc1` [Compound 1]: the “Inhibition ratio (%)” value in data set [1] (1 mg/kg orally once a day, started from the primary sensitization) is recorded as −8.5%; in data set [1] (5 mg/kg orally once a day, started from the primary sensitization) it was 69.5* %; in data set [1] (5 mg/kg orally once a day, started from the secondary sensitization) it was 69.6* %; in data set [1] (10 mg/kg orally once a day, started from the secondary sensitization) it was 100.0** %. Moreover, in data set [1] (5 mg/kg from the primary sensitization, or 5 and 10 mg/kg from the secondary sensitization), the “inhibitory effect on type II collagen-induced arthritis (in words)” value was “significant inhibitory effect”. Besides, the “toxicity (in words)” value with CDF1 male mice (mice) was “very low toxicity”. In the data set on CDF1 male mice (mortality after 2 weeks, probit method), this compound displayed an LD50 value of 620.5 mg/kg.
